Test system: nitrification
Test: Inhibition of nitrification in soil (48 well plate, ammonium sulfate, colour reaction read at 540 nm)
Conditions: for IN (best inhibition value obtained for a compound): field soil, up to 72 hrs at room temperature, compared to control (DMSO only)
Method: The compounds of the invention have been tested as follows in terms of the inhibition of nitrification:
Soil was sampled fresh from a field (e.g. Limburgerhof), dried and sieved through a 500 μm sieve. Approximately 200 mg of soil were placed into each well of a 48 well plate. […] 6 μmol ammonium sulfate was added per well as well as 4.8 mg NaClO3.
Subsequently, the samples were incubated at room temperature for up to 72 hrs. After the incubation period 64 mg KCl were added and mixed. 25 μl of the supernatant were placed into a fresh plate and 260 μl of a color reaction solution (from Merck Nr 1.11799.0100) were added. Measurements were taken with a Tecan plate Reader at 540 nm wavelength.
Inhibition is calculated as x=% activity compared to control, and converted to 100-x to give the value of inhibition, rather than activity.

Row | Compound | IN (best inhibition value obtained for a compound) (dose of 10 ppm) | IN (best inhibition value obtained for a compound) (dose of 5±1 ppm) | also measured
1 | C#CCOCc1ccc(Cl)cc1 [Compound 1-15] | 58% |  | 
2 | C#CCOCc1ccc(OC(C)C)cc1 [Compound 1-24] |  | 18% | 
3 | C#CCOCc1ccc(OC)cc1 [Compound 1-8] | 57% |  | 
4 | C#CCOCc1ccc(OCC)cc1 [Compound 1-26] |  | 69% | 
5 | C#CCOCc1ccc(Oc2ccc(Cl)cc2)cc1 [Compound 1-16] | 11% |  | 
6 | C#CCOCc1ccc(C(=O)O)cc1 [Compound 1-31] |  | 18% | 
7 | C#CCOCc1ccccc1F [Compound 1-5] | 27% |  | 
8 | C#CCOC(Cn1cncn1)c1ccc(Oc2ccc(Cl)cc2)cc1Cl (stereo not shown) [Compound 1-6] | 10% |  | 
9 | C#CCOCc1ccc(F)cc1 [Compound 1-25] |  | 87% | 
10 | C#CCOCc1ccccc1 [Compound 1-28] |  | 88% | 
11 | C#CCOCc1ccc(Oc2ccc(F)cc2)cc1 [Compound 1-4] | 15% |  | 
12 | C#Cc1ccccc1 [Phenylacetylene, phenylacetylene, reference compound] |  |  | IN (inhibition value), comparative example (dose of 10 ppm, same conditions as Example 1.1): 7%
13 | C#CCOC(Cn1cncn1)c1ccc(Br)cc1 (stereo not shown) [Compound 1-12] | 15% |  | 
14 | C#CCOCc1ccc(I)cc1 [Compound 1-32] |  | 53% | 
15 | C#CCOCc1ccc(Br)cc1 [Compound 1-2] | 48% |  | 
16 | C#CCOCc1ccc(COCC#C)cc1 [Compound 1-23] |  | 18% | 

Row | Compound | IN (best inhibition value obtained for a compound) (dose of 10 ppm) | IN (best inhibition value obtained for a compound) (dose of 5±1 ppm) | also measured
17 | C#CCOCc1ccc(Oc2ccccc2)cc1 [Compound 1-3] | 11% |  | 
18 | C#CCOC(Cn1cncn1)c1ccc(Oc2ccc(Cl)cc2)cc1 (stereo not shown) [Compound 1-18] | 10% |  | 
19 | C#CCOC(Cn1cncn1)c1ccc(Oc2ccc(Cl)cc2)cc1C(F)(F)F (stereo not shown) [Compound 1-7] | 11% |  | 
20 | C#CCOC(c1ccccc1)C(CCCC)n1cncn1 (stereo not shown) [Compound 1-21] | 20% |  | 
21 | C#CCOCc1ccc(OC)c(OC)c1 [Compound 1-1] | 15% |  | 
22 | C#CCOCc1cccc(OC)c1 [Compound 1-9] | 20% |  | 
23 | C#CCOCc1ccc(C(=O)N(C)C)cc1 [Compound 1-33] |  | 24% | 
24 | C#CCOCc1ccc(OCCC)cc1 [Compound 1-27] |  | 59% | 
25 | C#CCOCc1ccc(C)cc1 [Compound 1-29] |  | 37% | 
26 | C#CCOC(CC(n1cncn1)C(C)(C)C)c1ccc(Cl)cc1Cl (stereo not shown) [Compound 1-22] | 11% |  | 
27 | C#CCOC(Cn1cncn1)c1cc(OC)c(OC)c(OC)c1 (stereo not shown) [Compound 1-20] | 10% |  | 
28 | C#CCOCc1ccc(Cl)cc1Cl [Compound 1-10] | 14% |  | 
29 | C#CCOC(Cn1cncn1)c1ccc(F)cc1 (stereo not shown) [Compound 1-13] | 10% |  | 
30 | C#CCOCc1ccc(C#N)cc1 [Compound 1-30] |  | 25% | 
31 | C#CCOCc1ccc(Cl)cc1C [Compound 1-14] | 56% |  | 

Source: patent US11021413B2, “Benzylpropargylether as nitrification inhibitors” (BASF SE, priority 2014, dated 2021)
